Laboratory results published in patent publication US7576128B2 (priority 2004, dated 2009).
Numbering of substitutions follows the chain as printed. Like-named read-outs stand apart in the source and are kept apart here.

Key:
[1] = biological target: T1, androgen receptor (Homo sapiens, UniProt P10275); experiment: AR antagonist cell assay, MDA-MB453-MMTV clone 54-19 luciferase reporter; assay type: cell-based
T1 sequence (P10275 1-920 Q868H): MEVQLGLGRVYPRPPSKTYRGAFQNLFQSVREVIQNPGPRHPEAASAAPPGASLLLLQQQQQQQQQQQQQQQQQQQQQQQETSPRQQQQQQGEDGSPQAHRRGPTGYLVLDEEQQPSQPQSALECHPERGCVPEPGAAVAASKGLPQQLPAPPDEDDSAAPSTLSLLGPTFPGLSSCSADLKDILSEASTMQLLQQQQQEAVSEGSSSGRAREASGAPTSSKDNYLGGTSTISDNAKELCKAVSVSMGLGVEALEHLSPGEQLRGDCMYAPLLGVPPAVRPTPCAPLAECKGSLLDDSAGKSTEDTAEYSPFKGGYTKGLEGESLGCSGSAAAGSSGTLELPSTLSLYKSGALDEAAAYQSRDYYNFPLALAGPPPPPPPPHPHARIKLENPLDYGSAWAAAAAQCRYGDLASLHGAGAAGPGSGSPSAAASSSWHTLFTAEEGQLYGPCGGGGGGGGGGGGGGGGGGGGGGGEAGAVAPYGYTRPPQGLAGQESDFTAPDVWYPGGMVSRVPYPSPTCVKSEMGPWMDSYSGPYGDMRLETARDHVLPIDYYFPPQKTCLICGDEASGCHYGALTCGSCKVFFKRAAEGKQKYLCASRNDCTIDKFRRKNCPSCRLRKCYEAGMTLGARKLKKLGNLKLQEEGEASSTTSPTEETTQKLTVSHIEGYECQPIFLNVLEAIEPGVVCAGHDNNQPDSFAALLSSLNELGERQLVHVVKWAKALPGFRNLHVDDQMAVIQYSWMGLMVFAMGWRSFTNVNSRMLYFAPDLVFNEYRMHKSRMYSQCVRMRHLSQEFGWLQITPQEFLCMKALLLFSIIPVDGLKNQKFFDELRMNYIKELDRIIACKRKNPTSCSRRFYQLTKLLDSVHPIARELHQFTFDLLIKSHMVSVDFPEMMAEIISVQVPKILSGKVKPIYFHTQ
Protocol: The compounds ability to antagonize the effects of androgen on the androgen receptor were determined in a whole cell assay as described immediately below.
This cell line is a stable transfected cell line with MDA-MB453 cell background (a human breast tumor cell line expressing androgen receptor). A MMTV minimal promoter containing ARE was first cloned in front of a firefly luciferase reporter gene. Then the cascade was cloned into transfection vector pUV120puro. Electroporation method was used for transfecting MDA-MB-453 cell. Puromycin resistant stable cell line was selected.
• 1. Cells are maintained in culture medium, splitting cells when they reach 80-90% confluence • 2. To test compounds, 10,000 cells/well are plated to opaque 96 cell culture plate in 100 ul/well plating medium, culture for overnight at 37° C. in cell culture incubator • 3. Carefully remove plating medium, then add 80 ul/well of pre-warmed assay medium, add 10 ul/well testing compound (final concentration at) 1000 nM, 200 nM, 40 nM, 8 nM, 1.6 nM, and 0.32 nM), incubate at 37° C. for 30 minutes • 4. Add 10 ul/well freshly prepared DHT (final concentration at 100 pM) to each well, incubate at 37° C. for 17 hr (overnight) • 5.
The results are reported as the mean of multiple tests as described below (the numbers of tests are indicated in the footnote). N.D. denotes that the compound was not tested.

[2] = biological target: T2, hAR (human androgen receptor) (Homo sapiens, UniProt P10275); experiment: Competitive binding analysis on baculovirus/Sf9 generated hAR extracts with 3H-DHT tracer
T2 construct: made in house; host or cells: baculovirus/Sf9 insect cells
T2 sequence (P10275 1-920): T1 sequence (P10275 1-920 Q868H) with H868Q
Protocol: The description below describes how the assay was carried out.
Competitive binding analysis was performed on baculovirus/Sf9 generated hAR extracts in the presence or absence of different concentrations of test agent and a fixed concentration of ^3H-dihydrotestosterone (^3H-DHT) as tracer. This binding assay method is a modification of a protocol previously described (Liao S., et. al. J. Steroid Biochem. 20:11-17 1984). Briefly, progressively decreasing concentrations of compounds are incubated in the presence of hAR extract (Chang et al. P.N.A.S. Vol. 89, pp. 5546-5950,1992), hydroxylapatite, and 1 nM ^3 H-DHT for one hour at 4° C. Subsequently, the binding reactions are washed three times to completely remove excess unbound ^3 H-DHT. hAR bound ^3H-DHT levels are determined in the presence of compounds (=i.e competitive binding) and compared to levels bound when no competitor is present (=i.e. maximum binding). Compound binding affinity to the hAR is expressed as the concentration of compound at which one half of the maximum binding is inhibited.

[3] = MDA-MB453-MMTV clone 54-19, 100 pM DHT, 17 hr; mean of multiple tests; read-out: AR Cell IC50
[4] = hAR extract, 1 nM 3H-DHT, one hour at 4° C., mean of multiple tests, read-out: AR Binding IC50
[5] = read-out: AR Cell IC50; MDA-MB453-MMTV clone 54-19, 100 pM DHT, 17 hr; mean of multiple tests

CC(C)CCCC(O)COc1ccc(C#N)c(C(F)(F)F)c1 (stereo not drawn) [Example 4, 4-(2-Hydroxy-6-methyl-heptyloxy)-2-tri-fluoromethyl-benzonitrile]
IC50 [1, 3]: > 1000 nM | IC50 [2, 4]: 442 nM

CCCCCCC(O)COc1ccc(C#N)c(C(F)(F)F)c1 (stereo not drawn) [Example 5, 4-(2-Hydroxy-octyloxy)-2-tri-fluoromethyl-benzonitrile]
IC50 [1, 3]: 509 nM | IC50 ([2]; read-out: AR Binding IC50): 32 nM

C=CCCCCC(O)COc1ccc(C#N)c(C(F)(F)F)c1 (stereo not drawn) [Example 6, 4-(2-Hydroxy-oct-7-enyl-oxy)-2-tri-fluoromethyl-benzonitrile]
IC50 [1, 3]: 662 nM | IC50 [2, 4]: 415 nM

CC(O)CCOc1ccc(C#N)c(C(F)(F)F)c1 (stereo not drawn) [Example 7, 4-(3-Hydroxy-butoxy)-2-tri-fluoromethyl-benzonitrile]
IC50 [1, 3]: > 1000 nM | IC50 [2, 4]: 274 nM

C[C@H](O)CCOc1ccc(C#N)c(C(F)(F)F)c1 [Example 8, (3S)-4-(3-Hydroxy-butoxy)-2-tri-fluoromethyl-benzonitrile]
IC50 [1, 3]: > 1000 nM | IC50 [2, 4]: 213 nM

C=CCC(O)CCOc1ccc(C#N)c(C(F)(F)F)c1 (stereo not drawn) [Example 9, 4-(3-Hydroxy-hex-5-enyl-oxy)-2tri-fluoromethyl-benzonitrile]
IC50 [2, 4]: 268 nM

CC(O)C(C)COc1ccc(C#N)c(C(F)(F)F)c1 (stereo not drawn) [Example 10, 4-(3-Hydroxy-2-meth-yl-butoxy)-2-tri-fluoromethyl-benzonitrile]
IC50 [1, 3]: 274 nM | IC50 ([2]; read-out: AR Binding IC50): 70 nM

CC(C)(CO)COc1ccc(C#N)c(C(F)(F)F)c1 [Example 11, 4-(3-Hydroxy-2,2-di-methyl-propoxy)-2-tri-fluoromethyl-benzonitrile]
IC50 [2, 4]: 706 nM

CC(C)(O)CCOc1ccc(C#N)c(C(F)(F)F)c1 [Example 12, 4-(3-Hydroxy-3-meth-yl-butoxy)-2-tri-fluoromethyl-benzonitrile]
IC50 [1, 3]: 269 nM | IC50 ([2]; read-out: AR Binding IC50): 27 nM

CC(C)C(O)C(C)(C)COc1ccc(C#N)c(C(F)(F)F)c1 (stereo not drawn) [Example 13, 4-(3-Hydroxy-2,2,4-tri-methyl-pentyloxy)-2-tri-fluoromethyl-benzonitrile]
IC50 [2, 4]: 442 nM

CCCC(O)C(CC)COc1ccc(C#N)c(C(F)(F)F)c1 (stereo not drawn) [Example 14, 4-(2-Ethyl-3-Hy-droxy-hexyl-oxy)-2-tri-fluoromethyl-benzonitrile]
IC50 [1, 3]: 794 nM | IC50 [2, 4]: 260 nM

C[C@H](O)C[C@H](C)Oc1ccc(C#N)c(C(F)(F)F)c1 [Example 16, (1S,3S)-4-(3-Hy-droxy-1-methyl-bu-toxy)-2-tri-fluoromethyl-benzonitrile]
IC50 [1, 3]: > 1000 nM | IC50 [2]: 6 nM

C[C@H](C[C@@H](C)O)Oc1ccc(C#N)c(C(F)(F)F)c1 [Example 17, (1R,3R)-4-(3-Hy-droxy-1-methyl-butoxy)-2-tri-fluoromethyl-benzonitrile]
IC50 [1, 3]: 807 nM | IC50 [2]: 107 nM

N#Cc1ccc(OCCCCO)cc1C(F)(F)F [Example 18, 4-(4-Hydroxy-butoxy)-2-tri-fluoromethyl-benzonitrile]
IC50 [1, 3]: 398 nM | IC50 ([2]; read-out: AR Binding IC50): 74 nM

CC(O)CCCOc1ccc(C#N)c(C(F)(F)F)c1 (stereo not drawn) [Example 19]
IC50 [1, 5]: > 1000 nM | IC50 ([2]; read-out: AR Binding IC50): 505 nM

CCCC(O)CCCOc1ccc(C#N)c(C(F)(F)F)c1 (stereo not drawn) [Example 20, 4-(4-Hydroxy-heptyloxy)-2-tri-fluoromethyl-benzontrile]
IC50 [1, 3]: 498 nM | IC50 [2, 4]: 243 nM

CCCC(CCCO)Oc1ccc(C#N)c(C(F)(F)F)c1 (stereo not drawn) [Example 21, 4-(4-Hydroxy-1-pro-pyl-butoxy)-2-tri-fluoromethyl-benzonitrile]
IC50 ([2]; read-out: AR Binding IC50): 808 nM

CC(O)CCC(C)Oc1ccc(C#N)c(C(F)(F)F)c1 (stereo not drawn) [Example 22, 4-(4-Hydroxy-1-meth-yl-pentyloxy)-2-tri-fluoromethyl-benzonitrile]
IC50 [1, 5]: > 1000 nM | IC50 [2, 4]: 185 nM

N#Cc1ccc(OCCCCCO)cc1C(F)(F)F [Example 24, 4-(5-Hydroxy-pentyloxy)-2-tri-fluoromethyl-benzonitrile]
IC50 [1, 3]: > 1000 nM | IC50 [2, 4]: 632 nM

CC(O)CCCCOc1ccc(C#N)c(C(F)(F)F)c1 (stereo not drawn) [Example 25, 4-(5-Hydroxy-hexyloxy)-2-tri-fluoromethyl-benzonitrile]
IC50 [1, 3]: 838 nM | IC50 [2, 4]: 504 nM

CC(CCO)CCOc1ccc(C#N)c(C(F)(F)F)c1 (stereo not drawn) [Example 26, 4-(5-Hydroxy-3-meth-yl-pentyloxy)-2-tri-fluoromethyl-benzonitrile]
IC50 ([2]; read-out: AR Binding IC50): 777 nM

CC(O)CCC(C)Oc1ccc(C#N)c(Cl)c1 (stereo not drawn) [Example 28, 2-Chloro-4-(4-hydroxy-1-methyl-pentyloxy)-benzonitrile]
IC50 [1, 3]: 263 nM | IC50 ([2]; read-out: AR Binding IC50): 49 nM

N#Cc1ccc(OCCCO)cc1Cl [Example 29, 2-Chloro-4-(3-hydroxy-propoxy)-benzonitrile]
IC50 ([2]; read-out: AR Binding IC50): 394 nM

N#Cc1ccc(OCCCCO)cc1Cl [Example 30, 2-Chloro-4-(4-hydroxy-butoxy)-benzonitrile]
IC50 ([2]; read-out: AR Binding IC50): 99 nM

C=CC(CO)Oc1ccc(C#N)c(Cl)c1 (stereo not drawn) [Example 31, 2-Chloro-4-(1-hydroxymethyl-allyloxy)-benzonitrile]
IC50 [2, 4]: 156 nM
